Values after ≈ are worked out from the molar mass of the structure shown. One block for each compound: values may come before it.
Experiments:
Assay type in all cases: functional
Candida albicans [1] = assay: Antifungal activity against Candida albicans assessed as inhibition of fungal growth incubated for 20 hrs
Candida parapsilosis = assay: Antifungal activity against Candida parapsilosis; conditions: Lodderomyces parapsilosis
Candida albicans [2] = assay: Antifungal activity against Candida albicans SANK 51486 by 96-well microplate method
Aspergillus flavus = assay: Antifungal activity against Aspergillus flavus SANK 18497 by 96-well microplate method
Aspergillus fumigatus [3] = assay: Antifungal activity against Aspergillus fumigatus SANK 10569 by 96-well microplate method
Cryptococcus neoformans [4] = assay: Antifungal activity against Cryptococcus neoformans TIMM 1855 by 96-well microplate method
Candida albicans [5] = assay: Antifungal activity against Candida albicans
Candida albicans [6] = assay: Antifungal activity against Candida albicans TIMM1756 assessed as inhibition of fungal growth incubated for 20 hrs
Cryptococcus neoformans [7] = assay: Antifungal activity against Cryptococcus neoformans TIMM1855 assessed as inhibition of fungal growth incubated for 68 hrs
Aspergillus fumigatus [8] = assay: In vivo antifungal activity against Aspergillus fumigatus infected in CDF1 mouse treated po 4 hrs after injection twice daily for 2 days measured on day 10; conditions: 48 h, time 2 day
Aspergillus fumigatus [9] = assay: Antifungal activity against Aspergillus fumigatus IFO6344 assessed as inhibition of fungal growth incubated for 20 hrs
Aspergillus fumigatus [10] = assay: Antifungal activity against Aspergillus fumigatus TIMM1728 assessed as inhibition of fungal growth incubated for 20 hrs
Candida albicans [11] = assay: In vivo antifungal activity against Candida albicans infected in CDF1 mouse treated po 4 hrs after injection twice daily for 2 days measured on day 10; conditions: 48 h, time 2 day
Candida albicans [12] = assay: Antifungal activity against Candida albicans TIMM1850 assessed as inhibition of fungal growth incubated for 20 hrs
Cryptococcus neoformans [13] = assay: Antifungal activity against Cryptococcus neoformans TIMM1740 assessed as inhibition of fungal growth incubated for 68 hrs
Cryptococcus neoformans [14] = assay: Antifungal activity against Cryptococcus neoformans
Candida = assay: Antifungal activity against Candida spp.
Aspergillus sp. = assay: Antifungal activity against Aspergillus sp
Aspergillus fumigatus [15] = assay: Antifungal activity against Aspergillus fumigatus
[16] = Cryptococcus neoformans, read-out: MIC

SMILES: C[C@@H](N1CCN(c2ccc(-n3cnn(Cc4cc(C(F)(F)F)cc(C(F)(F)F)c4C(F)(F)F)c3=O)nc2)CC1)[C@](O)(Cn1cncn1)c1ccc(F)cc1F
- MIC (Candida parapsilosis): 4 µg/mL (≈ 5.05 µM)

SMILES: C[C@@H](OCc1cc(-c2ccc(Cl)cc2F)no1)[C@](O)(Cn1cncn1)c1ccc(F)cc1F
- MIC80 (Candida albicans [5]): 0.0313 µg/mL (≈ 0.0654 µM)

SMILES: C[C@@H](OCc1cc(-c2cc(F)c(F)c(F)c2F)no1)[C@](O)(Cn1cncn1)c1ccc(F)cc1F
- MIC80 (Candida albicans [5]): 0.0313 µg/mL (≈ 0.0628 µM)

SMILES: C[C@@H](OCc1cc(-c2ccc(F)cc2F)no1)[C@](O)(Cn1cncn1)c1ccc(F)cc1F
- MIC80 (Candida albicans [5]): 0.0313 µg/mL (≈ 0.0677 µM)

SMILES: C[C@@H](N1CCN(c2ccc(-n3cncn3)cc2)C1=O)[C@](O)(Cn1cncn1)c1ccc(F)cc1F
- MIC (Candida albicans [6]): ≤ 0.001 µg/mL
- MIC (Cryptococcus neoformans [7]): 0.016 µg/mL (≈ 0.0333 µM)
- ED50 (Aspergillus fumigatus [8]): 4.4 mg/kg
- MIC (Aspergillus fumigatus [9]): 0.25 µg/mL (≈ 0.52 µM)
- MIC (Aspergillus fumigatus [10]): 0.25 µg/mL (≈ 0.52 µM)
- ED50 (Candida albicans [11]): 0.18 mg/kg
- MIC (Candida albicans [12]): ≤ 0.001 µg/mL
- MIC (Cryptococcus neoformans [13]): 0.016 µg/mL (≈ 0.0333 µM)

SMILES: C[C@H](n1nnc(CCN2CCN(c3cccc(C(F)(F)F)c3)CC2)n1)[C@](O)(Cn1cncn1)c1ccc(F)cc1F
- MIC (Cryptococcus neoformans [14]; [16]): 0.25 µg/mL (≈ 0.433 µM)
- MIC (Candida): 0.25 µg/mL (≈ 0.433 µM)

SMILES: C[C@@H](N1CCN(c2ccc(-n3cnn(Cc4ccc(OC(F)(F)F)cc4)c3=O)nc2)CC1)[C@](O)(Cn1cncn1)c1ccc(F)cc1F
- MIC (Candida parapsilosis): 4 µg/mL (≈ 5.96 µM)

SMILES: C[C@@H](N1CCN(c2ccc(-n3cnnn3)cc2)C1=O)[C@](O)(Cn1c[n+](COC(=O)OC2COCOC2)cn1)c1ccc(F)cc1F.[I-]
- MIC (Candida albicans [1]): 0.016 µg/mL

SMILES: CC(C)CCC(=O)OC[n+]1cnn(C[C@](O)(c2ccc(F)cc2F)[C@@H](C)N2CCN(c3ccc(-n4cnnn4)cc3)C2=O)c1.[I-]
- MIC (Candida albicans [1]): 0.016 µg/mL

SMILES: C[C@@H](N1C(=O)N(c2ccc(-n3cnnn3)cc2)CC1O)[C@](O)(Cn1cncn1)c1ccc(F)cc1F (stereo in doubt; 140b)
- MIC (Aspergillus sp.): 32 µg/mL (≈ 64.3 µM)
- MIC (Cryptococcus neoformans [14]): 8 µg/mL (≈ 16.1 µM)

SMILES: C[C@@H](OCc1cc(-c2ccc(F)c(Cl)c2)no1)[C@](O)(Cn1cncn1)c1ccc(F)cc1F
- MIC80 (Candida albicans [5]): 0.0313 µg/mL (≈ 0.0654 µM)

SMILES: CC(C)Cn1ncn(-c2ccc(N3CCN([C@H](C)[C@](O)(Cn4cncn4)c4ccc(F)cc4F)CC3)nc2)c1=O
- MIC (Aspergillus fumigatus [15]): 4 µg/mL (≈ 7.23 µM)
- MIC (Candida parapsilosis): 0.25 µg/mL (≈ 0.452 µM)
- MIC (Cryptococcus neoformans [14]; [16]): 0.25 µg/mL (≈ 0.452 µM)
- MIC (Candida): 0.03 µg/mL (≈ 0.0542 µM)

Now from value to compound:

- MIC (Candida albicans [1]): 0.016 µg/mL
SMILES: CC(C)C(=O)OC[n+]1cnn(C[C@](O)(c2ccc(F)cc2F)[C@@H](C)N2CCN(c3ccc(-n4cnnn4)cc3)C2=O)c1.[I-]

- MIC (Candida albicans [2]): ≤ 0.008 µg/mL
- MIC (Aspergillus flavus): ≤ 0.008 µg/mL
- MIC (Aspergillus fumigatus [3]): ≤ 0.008 µg/mL
- MIC (Cryptococcus neoformans [4]): ≤ 0.008 µg/mL
SMILES: C[C@@H](S[C@H]1CO[C@H](/C=C/C=C/c2ccc(C#N)cc2F)OC1)[C@](O)(Cn1cncn1)c1c(F)cccc1F

- MIC (Candida parapsilosis): 4 µg/mL (≈ 5.05 µM)
SMILES: C[C@@H](N1CCN(c2ccc(-n3cnn(Cc4cc(C(F)(F)F)cc(C(F)(F)F)c4C(F)(F)F)c3=O)cn2)CC1)[C@](O)(Cn1cncn1)c1ccc(F)cc1F

- MIC (Candida albicans [2]): ≤ 0.008 µg/mL
- MIC (Aspergillus flavus): ≤ 0.008 µg/mL
- MIC (Aspergillus fumigatus [3]): ≤ 0.008 µg/mL
- MIC (Cryptococcus neoformans [4]): ≤ 0.008 µg/mL
SMILES: C[C@@H](S[C@H]1CO[C@H](/C=C/C=C/c2ccc(C#N)cc2)OC1)[C@](O)(Cn1cncn1)c1ccc(F)cc1F

- MIC (Candida albicans [1]): 0.016 µg/mL
SMILES: CC(=O)NCCOC(=O)OC[n+]1cnn(C[C@](O)(c2ccc(F)cc2F)[C@@H](C)N2CCN(c3ccc(-n4cnnn4)cc3)C2=O)c1.[I-]

- MIC (Candida albicans [1]): 0.016 µg/mL
SMILES: CCC(=O)OC[n+]1cnn(C[C@](O)(c2ccc(F)cc2F)[C@@H](C)N2CCN(c3ccc(-n4cnnn4)cc3)C2=O)c1.[I-]

- MIC80 (Candida albicans [5]): 0.0313 µg/mL (≈ 0.0677 µM)
SMILES: C[C@@H](OCc1cc(-c2cccc(F)c2F)no1)[C@](O)(Cn1cncn1)c1ccc(F)cc1F

- MIC80 (Candida albicans [5]): 0.0313 µg/mL (≈ 0.0606 µM)
SMILES: C[C@@H](OCc1cc(-c2c(F)c(F)c(F)c(F)c2F)no1)[C@](O)(Cn1cncn1)c1ccc(F)cc1F

- MIC80 (Candida albicans [5]): 0.0313 µg/mL (≈ 0.0704 µM)
SMILES: C[C@@H](OCc1cc(-c2ccccc2F)no1)[C@](O)(Cn1cncn1)c1ccc(F)cc1F

- MIC (Candida albicans [2]): ≤ 0.008 µg/mL
- MIC (Aspergillus flavus): ≤ 0.008 µg/mL
- MIC (Aspergillus fumigatus [3]): ≤ 0.008 µg/mL
- MIC (Cryptococcus neoformans [4]): ≤ 0.008 µg/mL
SMILES: C[C@@H](S[C@H]1CO[C@H](/C=C/C=C/c2ccc(C#N)cc2F)OC1)[C@](O)(Cn1cncn1)c1ccc(F)cc1

- MIC80 (Candida albicans [5]): 0.0313 µg/mL (≈ 0.0677 µM)
SMILES: C[C@@H](OCc1cc(-c2cc(F)ccc2F)no1)[C@](O)(Cn1cncn1)c1ccc(F)cc1F

- MIC80 (Candida albicans [5]): 0.0313 µg/mL (≈ 0.0654 µM)
SMILES: C[C@@H](OCc1cc(-c2ccc(F)cc2Cl)no1)[C@](O)(Cn1cncn1)c1ccc(F)cc1F

- MIC80 (Candida albicans [5]): 0.0313 µg/mL (≈ 0.0677 µM)
SMILES: C[C@@H](OCc1cc(-c2cc(F)cc(F)c2)no1)[C@](O)(Cn1cncn1)c1ccc(F)cc1F

- MIC (Candida parapsilosis): 4 µg/mL (≈ 5.96 µM)
SMILES: C[C@@H](N1CCN(c2ccc(-n3cnn(Cc4ccc(OC(F)(F)F)cc4)c3=O)cn2)CC1)[C@](O)(Cn1cncn1)c1ccc(F)cc1F

- MIC80 (Candida albicans [5]): 0.0313 µg/mL (≈ 0.0704 µM)
SMILES: C[C@@H](OCc1cc(-c2cccc(F)c2)no1)[C@](O)(Cn1cncn1)c1ccc(F)cc1F

- MIC80 (Candida albicans [5]): 0.0313 µg/mL (≈ 0.0711 µM)
SMILES: Cc1ccc(-c2cc(CO[C@H](C)[C@](O)(Cn3cncn3)c3ccc(F)cc3F)on2)cc1

- MIC80 (Candida albicans [5]): 0.0313 µg/mL (≈ 0.0654 µM)
SMILES: C[C@@H](OCc1cc(-c2ccc(Cl)c(F)c2)no1)[C@](O)(Cn1cncn1)c1ccc(F)cc1F

From ChEMBL document CHEMBL5126532, “Synthetic approaches and structural diversity of triazolylbutanols derived from voriconazole in the antifungal drug development” (Eur J Med Chem, 2022)
